Measurements as given in PMC9508196 (Scientific Reports, 2022).
Non-standard residues stand in square brackets, D forms with d. Residues, ends and D or L forms follow the SMILES beside them. No end group written: not given here.

Assays:
[1] = test system: human red blood cells (hRBCs); experiment: Hemolysis assay; format: cell-based; settings: hRBCs, peptide 250 µg/mL, 1 h, 37 °C
Procedure: The hemolytic activity of peptides was determined as the amount of hemoglobin released from lysed human red blood cells (hRBCs) after treatment with peptide. Fresh hRBCs were collected from a healthy volunteer in polycarbonate tubes containing heparin. Then, the collected packed RBCs were washed at least three times (or until the supernatant was clear) with sterile phosphate-buffered saline pH 7.4 (PBS) and centrifuged at 2,000 × g for 5 min. The 2% (v/v) of washed hRBCs in PBS were incubated with serially diluted peptides (0.98 to 250 μg/ml) for 1 h at 37 °C. After centrifugation, the supernatants were monitored for optical density (OD) at 405 nm using a Multiskan FC Microplate Reader[21]. Values for 0% (negative control) and 100% (positive control) lysis were determined by incubating the hRBCs with PBS only (ODBlank) and 0.1% (v/v) Triton X-100 (ODTriton X-100), respectively. The experiments were performed in triplicate. The percent hemolysis was calculated according to the following equation: %Hemolysis=ODSample-ODBlank/ODTriton X-100-ODBlank×100

[2] = test system: A. baumannii ATCC 19,606; experiment: Peptide stability to proteolytic enzymes (MIC/MBC after pre-incubation); format: cell-based, Acinetobacter baumannii; settings: for MBC, control / MIC, control: control: absence of human plasma and proteolytic enzymes, A. baumannii ATCC 19,606; for MBC in the presence of pepsin / MIC in the presence of pepsin: peptide pre-incubated with 1 mg/ml pepsin
Procedure: (§1) Minimum inhibitory concentration (MIC) of peptides and antibiotics was assessed by a modified version of the broth microdilution method from the Clinical and Laboratory Standards Institute (CLSI) as previously described. In brief, mid-log phase growths of microbial strains were cultured in Müeller-Hinton broth (MHB) with an initial inoculum of 2–8 × 10^5 CFU/mL. Bacteria suspensions were incubated in sterile 96-well plates with test agents at desired concentrations. […] Minimum bactericidal concentration (MBC) determination was performed using a modified version of the colony count assay. In brief, fifty µl of all non-turbid wells from MIC experiments were spread on agar plates. The MBC value was defined as the lowest concentration of peptides with no colony growth on the plate. All assays were performed in triplicate.
The MIC and MBC assays were performed after peptide was exposed to various conditions, including proteolytic enzymes, serum salts and human plasma. […] To determine peptide sensitivity to physiological salts, approximately 5 × 10^5 CFU/ml of A. baumannii ATCC 19,606 was mixed with the MHB containing different physiological salts at final concentration as follows: 150 mM NaCl, 4.5 mM KCl, 1 mM MgCl2, 6 µM NH4Cl, 8 µM ZnCl2, 4 µM FeCl3 and […]. After treatment, the MIC was evaluated as described in 2.4. To test the stability of peptides in human plasma, peptide was mixed with pure human plasma, and the mixture was incubated for 1 h at 37 °C. Then, the mixture was two-fold serially diluted with sterile MHB. The peptides at final concentrations of 0.98 to 250 µg/ml were incubated with an equal volume of bacterial suspension at 37 °C for 24 h. MIC values were determined as described in 2.4.

[3] = test system: mouse fibroblast (L929) cells; experiment: In vitro cytotoxicity assay (MTT); format: cell-based; settings: 24 h
Procedure: The colorimetric 3-(4,5 dimethylthiazol-2-yl)-2,5-diphenyltetrazolium bromide (MTT; Invitrogen) dye reduction assay was used to determine the cytotoxicity of peptides on mouse fibroblast (L929) cells (NCTC clone 929) according to a modified MTT assay. L929 cells were cultured in Dulbecco’s Modified Eagle Medium (DMEM; Gibco) containing 10% fetal bovine serum (FBS; Gibco) and 100 U/ml penicillin–streptomycin in a fully humidified atmosphere of 95% air and 5% CO2 at 37 °C. The cells (10^5 cells/well) were seeded on 96-well plates and incubated with serially diluted peptide (0.98 to 250 μg/ml) for 24 h. At the end of incubation period, MTT solution (100 µl, 0.4 mg/ml) was added to each well and incubated for 4 h. The supernatants were removed and replaced by 100 µl of DMSO to dissolve the purple formazan crystals. Absorbance was measured using a MultiskanTM FC microplate reader at a wavelength of 570 nm. Cells without peptides served as negative controls. Cell viability (percentage) was calculated using the following equation: %Cell viability=OD570of treated sample-ODBlank/OD570of control-ODBlank×100%

[4] = test system: Bacillus cereus ATCC 11,778; format: cell-based; settings: B. cereus ATCC 11,778; broth microdilution, MHB, 24 h, 37 °C, triplicate
Source text: (§2) Ten strains of both Gram-positive and -negative bacteria, including Staphylococcus aureus ATCC 25,923, S. epidermidis ATCC 12,228, Bacillus cereus ATCC 11,778, Listeria monocytogenes 10403S, Salmonella typhimurium ATCC 13,311, Pseudomonas aeruginosa ATCC 27,853, Shigella sonnei ATCC 11,060, A. baumannii ATCC 19,606, Escherichia coli ATCC 25,922 and E. coli O157:H7, were used in this study. Eight clinical isolates of multidrug-resistant (MDR) and extensively drug-resistant (XDR) A. baumannii, isolated from human (blood, sputum, respiratory sample, sterile site sample and urine), were kindly provided by Asst. Prof. Dr. Sakawrat Kanthawong (Faculty of Medicine, Khon Kaen University, Thailand) (Table S1). All bacterial strains, excluding L. monocytogenes 10403S and E. coli, were cultured in tryptic soy broth (TSB). L. monocytogenes was grown in TSB supplemented with 0.6% yeast extract (TSB-YE), and E. coli was cultured in Luria broth (LB). All of bacteria were cultured at 37 °C with continuous shaking at 220 rpm.
as §1

[5] = test system: Escherichia coli ATCC 25,922; format: cell-based; settings: E. coli ATCC 25,922; broth microdilution, MHB, 24 h, 37 °C, triplicate
Source text: as §2, §1

[6] = test system: Listeria monocytogenes 10403S; format: cell-based; settings: L. monocytogenes 10403S; broth microdilution, MHB, 24 h, 37 °C, triplicate
Source text: as §2, §1

[7] = test system: Pseudomonas aeruginosa ATCC 27,853; format: cell-based; settings: P. aeruginosa ATCC 27,853; broth microdilution, MHB, 24 h, 37 °C, triplicate
Source text: as §2, §1

[8] = test system: Shigella sonnei ATCC 11,060; format: cell-based; settings: S. sonnei ATCC 11,060; broth microdilution, MHB, 24 h, 37 °C, triplicate
Source text: as §2, §1

[9] = test system: Staphylococcus epidermidis ATCC 12,228; format: cell-based; settings: S. epidermidis ATCC 12,228; broth microdilution, MHB, 24 h, 37 °C, triplicate
Source text: as §2, §1

[10] = peptide pre-incubated with 1 mg/ml proteinase K, 37 °C, 1 h
[11] = peptide pre-incubated with 1 mg/ml trypsin, 37 °C, 1 h

Molecule | Hemolysis [1] | MBC, control [2] | MIC, control [2] | MBC in the presence of pepsin ([2]; 37 °C, 1 h) | MIC in the presence of pepsin ([2]; 37 °C, 1 h) | MBC in the presence of proteinase K [2, 10] | MIC in the presence of proteinase K [2, 10] | MBC in the presence of trypsin [2, 11] | MIC in the presence of trypsin [2, 11] | cell viability ([3]; 1 × and 2 × MIC) | cell viability ([3]; peptide 62.5 µg/mL) | MIC [4] | MIC [5] | MIC [6] | MIC [7] | MIC [8] | MIC [9] | cell viability ([3]; all tested peptide concentrations (0.98 to 250 μg/ml))
CC[C@@H](C)[C@@H](NC(=O)[C@@H](CCCCN)NC(=O)CNC(=O)[C@@H](C)NC(=O)[C@H](NC(=O)[C@@H](CCCCN)NC(=O)[C@@H](CCCCN)NC(=O)[C@H](NC(=O)[C@@H](CCCNC(=N)N)NC(=O)[C@@H](CCCNC(=N)N)NC(=O)[C@@H](Cc1ccccc1)NC(=O)[C@@H](CC(C)C)NC(=O)[C@H](N)CCCNC(=N)N)C(C)C)C(C)C)C(=O)N[C@H](C)C(=O)N[C@H](CCCCN)C(=O)N[C@H](CCCNC(=N)N)C(=O)N[C@@H](C(=O)N[C@H](Cc1c[nH]c2ccccc12)C(=O)N[C@H](CCCCN)C(N)=O)[C@H](C)CC [D-AP19] (H-[dR][dL][dF][dR][dR][dV][dK][dK][dV][dA]G[dK][dI][dA][dK][dR][dI][dW][dK]-NH2) | 3.28% | 7.81(7.81) µg/ml | 7.81(7.81) µg/ml | 15.63(15.63) µg/ml | 15.63(15.63) µg/ml | 7.81(7.81) µg/ml | 7.81(7.81) µg/ml | 7.81(7.81) µg/ml | 7.81(7.81) µg/ml | 100% | more than 70% | – | – | – | – | – | – | –
RLFRRVKKVAGKIAKRIWK-NH2 [AP19] | 7.25% | 7.81(7.81) µg/ml | 7.81(7.81) µg/ml | 31.25(31.25) µg/ml | 31.25(31.25) µg/ml | – | – | – | – | – | – | 7.81 µg/mL | 3.91 µg/mL | 3.91 µg/mL | 3.91 µg/mL | 3.91 µg/mL | 1.95 µg/mL | 100%
